In this assay the target is T1, KCNT1 (KNa1.1, Slack) (Homo sapiens, UniProt Q5JUK3).
T1 construct: expressed in transfected cells; host or cells: HEK-TREX (tetracycline-inducible HEK cell line)
T1 sequence (Q5JUK3 1-1230): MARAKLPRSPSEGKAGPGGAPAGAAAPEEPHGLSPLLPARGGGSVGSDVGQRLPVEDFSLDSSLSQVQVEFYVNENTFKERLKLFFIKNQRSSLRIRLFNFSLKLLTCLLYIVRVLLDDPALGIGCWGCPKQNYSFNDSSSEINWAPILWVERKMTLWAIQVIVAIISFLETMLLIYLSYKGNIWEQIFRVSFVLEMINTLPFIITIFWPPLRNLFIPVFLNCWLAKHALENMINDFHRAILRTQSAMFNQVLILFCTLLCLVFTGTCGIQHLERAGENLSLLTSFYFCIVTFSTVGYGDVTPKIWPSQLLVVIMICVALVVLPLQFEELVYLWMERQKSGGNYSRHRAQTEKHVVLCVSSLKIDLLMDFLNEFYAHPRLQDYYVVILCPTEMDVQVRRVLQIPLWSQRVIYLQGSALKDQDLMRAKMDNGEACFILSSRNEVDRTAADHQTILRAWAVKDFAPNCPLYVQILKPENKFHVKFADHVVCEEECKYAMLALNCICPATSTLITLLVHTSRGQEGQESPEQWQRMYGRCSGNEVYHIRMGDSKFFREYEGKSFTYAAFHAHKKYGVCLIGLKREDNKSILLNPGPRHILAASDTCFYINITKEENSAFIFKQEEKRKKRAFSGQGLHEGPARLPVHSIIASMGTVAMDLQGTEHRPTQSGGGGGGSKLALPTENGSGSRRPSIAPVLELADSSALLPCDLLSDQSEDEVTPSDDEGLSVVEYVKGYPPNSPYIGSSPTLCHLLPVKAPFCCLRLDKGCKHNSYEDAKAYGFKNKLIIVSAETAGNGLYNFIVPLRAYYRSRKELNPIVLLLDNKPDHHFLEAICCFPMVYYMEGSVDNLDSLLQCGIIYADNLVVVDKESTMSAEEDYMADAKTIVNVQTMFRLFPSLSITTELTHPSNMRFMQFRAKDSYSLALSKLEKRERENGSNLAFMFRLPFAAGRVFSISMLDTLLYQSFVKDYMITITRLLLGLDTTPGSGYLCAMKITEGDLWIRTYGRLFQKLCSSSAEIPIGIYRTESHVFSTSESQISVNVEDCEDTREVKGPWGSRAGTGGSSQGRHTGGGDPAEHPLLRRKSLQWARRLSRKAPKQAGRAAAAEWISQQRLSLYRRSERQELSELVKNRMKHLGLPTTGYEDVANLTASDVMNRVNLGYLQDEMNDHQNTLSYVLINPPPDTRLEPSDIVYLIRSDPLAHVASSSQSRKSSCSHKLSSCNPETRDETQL
Kind of assay: KCNT1-WT-Basal patch clamp assay (SyncroPatch 384PE, HEK-TREX inducible cell line). It counts as cell-based. The following applies: tetracycline inducible HEK-TREX cells; perforated patch; holding -80 mV, 100 ms step to 0 mV; room temperature; read-out: KCNT1 WB IC50. The protocol:
KCNT1-WT-Basal—Patch Clamp Assay
Inhibition of KCNT1 (KNa1.1, Slack) was evaluated using a tetracycline inducible cell line (HEK-TREX). Currents were recorded using the SyncroPatch 384PE automated, patch clamp system. Pulse generation and data collection were performed with PatchController384 V1.3.0 and DataController384 V1.2.1 (Nanion Technologies). The access resistance and apparent membrane capacitance were estimated using built-in protocols. Current were recorded in perforated patch mode (10 μM escin) from a population of cells. The cells were lifted, triturated, and resuspended at 800,000 cells/ml. The cells were allowed to recover in the cell hotel prior to experimentation. Currents were recorded at room temperature. The external solution contained the following (in mM): NaCl 105, NMDG 40, KCl 4, MgCl2 1, CaCl2 5 and HEPES 10 (pH=7.4, Osmolarity ˜300 mOsm). The extracellular solution was used as the wash, reference and compound delivery solution. The internal solution contained the following (in mM): NaCl 70, KF 70, KCl 10, EGTA 5, HEPES 5 and Escin 0.01 (pH=7.2, Osmolarity ˜295 mOsm). Escin is made at a 5 mM stock in water, aliquoted, and stored at −20° C. The compound plate was created at 2× concentrated in the extracellular solution. The compound was diluted to 1:2 when added to the recording well. The amount of DMSO in the extracellular solution was held constant at the level used for the highest tested concentration. A holding potential of −80 mV with a 100 ms step to 0 mV was used. Mean current was measured during the step to 0 mV. […] The average mean current from 3 sweeps was calculated and the % inhibition of each compound was calculated. The % Inhibition as a function of the compound concentration was fit with a Hill equation to derive IC50, slope, min and max parameters. If KCNT1 inhibition was less than 50% at the highest tested concentration or if an IC50 could not be calculated, then a percent inhibition was reported in place of the IC50.
For the compound `CN(C)S(=O)(=O)c1ccc(C(=O)N[C@@H]2CCc3cc(Cl)ccc32)cc1` [Compound II-28], the half-inhibitory concentration (IC50) was at most 1 µM.
As to `NC(=O)c1ccc(C(=O)N[C@@H]2CCCc3cc(Cl)ccc32)s1` (single isomer, unassigned) [Compound I-31], the IC50 is at most 1 µM.
Regarding `O=C(N[C@@H]1CCc2cc(Cl)ccc21)c1cccc(Cl)c1O` [Compound III-7], the IC50 was at most 1 µM.
As for `O=C(N[C@H]1CCc2cc(Cl)ccc21)c1ccc(NS(=O)(=O)C(F)(F)F)cc1` [Compound II-29, N-[(1S)-5-chloroindan-1-yl]-4-(trifluoromethylsulfonylamino)benzamide], the IC50 was at least 20 µM.
On to `O=C(N[C@@H]1CCc2cc(Cl)ccc21)c1cc(F)ccc1O` [Compound III-6], for which the IC50 was at most 1 µM.
For `O=C(N[C@@H]1CCc2cc(Cl)ccc21)c1ccc(S(=O)(=O)C(F)(F)F)cc1` [Compound II-38], the concentration for half-maximal inhibition (IC50) is at most 1 µM.
As for `NS(=O)(=O)c1ccc(C(=O)N[C@@H]2CCc3cc(Cl)ccc32)s1` [Compound I-4], the IC50 was at most 1 µM.
For `O=C(N[C@@H]1CCc2cc(Cl)ccc21)c1ccc(S(=O)(=O)CC(F)F)cc1` [Compound II-51], the 50% inhibitory concentration (IC50) was in the range of 1 to 20 µM.
Consider `O=C(N[C@@H]1CCc2cc(Cl)ccc21)c1cc(Cl)ccc1O` [Compound III-11], for which the IC50 is at most 1 µM.
For the compound `NS(=O)(=O)c1c[nH]c(C(=O)N[C@@H]2CCc3cc(Cl)ccc32)c1` [Compound I-14], the IC50 was at least 20 µM.
As to `CN(c1ccc(C(=O)NC2CCc3cc(Cl)ccc32)cc1)S(C)(=O)=O` (single isomer, unassigned) [Compound II-2, N-(5-chloroindan-1-yl)-4-[methyl(methylsulfonyl)amino]benzamide], the IC50 is at most 1 µM.
For `O=C(N[C@@H]1CCc2cc(Cl)ccc21)c1ccc(F)cc1O` [Compound III-4] the value was at most 1 µM; for `CCS(=O)(=O)Nc1ccc(C(=O)N[C@H]2CCc3cc(Cl)ccc32)cc1` [Compound II-17, N-[(1S)-5-chloroindan-1-yl]-4-(ethylsulfonylamino)benzamide], at least 20 µM; for `CO[C@H]1CCN(S(=O)(=O)c2ccc(C(=O)N[C@@H]3CCc4cc(Cl)ccc43)s2)C1` [Compound I-43], at most 1 µM.
For `Cn1nc(C(=O)N[C@@H]2CCc3cc(Cl)ccc32)cc1C1CC1` [Compound I-1], the IC50 was in the range of 1 to 20 µM.
For the compound `O=C(N[C@@H]1CCc2cc(Cl)ccc21)c1ccc(S(=O)(=O)N2CC[C@@H](O)C2)s1` [Compound I-40], the concentration for half-maximal inhibition (IC50) is at most 1 µM.
As for `O=C(N[C@@H]1CCc2cc(Cl)ccc21)c1ccc(S(=O)(=O)C(F)F)cc1` [Compound II-42], the concentration for half-maximal inhibition (IC50) was at most 1 µM.
In the case of `O=C(N[C@@H]1CCc2cc(Cl)ccc21)c1ccc(S(=O)(=O)C2CC2)cc1` [Compound II-39], the IC50 is at most 1 µM.
For `NS(=O)(=O)Nc1ccc(C(=O)N[C@@H]2CCc3cc(Cl)ccc32)cc1` [Compound II-37] the value was 1 to 20 µM; for `CS(=O)(=O)c1ccc(C(=O)N[C@H]2CCCc3cc(Cl)ccc32)s1` (single isomer, unassigned) [Compound I-24], at most 1 µM; for `CCS(=O)(=O)c1ccc(C(=O)N[C@@H]2CCc3cc(Cl)ccc32)cc1` [Compound II-30], at most 1 µM.
Then `COc1ccc(C(=O)NC2CCc3cc(Cl)ccc32)c(O)c1` (single isomer, unassigned) [Compound III-1, N-(5-chloroindan-1-yl)-2-hydroxy-4-methoxy-benzamide], with over 20 µM; and `CN(C)Cc1ccc(C(=O)N[C@@H]2CCc3cc(Cl)ccc32)s1` [Compound I-38], with 1 to 20 µM.
For the compound `CN(c1ccc(C(=O)N[C@H]2CCc3cc(Cl)ccc32)cc1)S(=O)(=O)C(F)(F)F` [Compound II-21], the IC50 is 1 to 20 µM.
For the compound `CN(C)C(=O)c1ccc(C(=O)N[C@@H]2CCc3cc(Cl)ccc32)s1` [Compound I-29], the IC50 is at most 1 µM.
For `Cn1c(C(=O)N[C@@H]2CCc3cc(Cl)ccc32)ccc1S(N)(=O)=O` [Compound I-13], the IC50 is at least 20 µM.
Turning to `NS(=O)(=O)c1csc(C(=O)N[C@@H]2CCc3cc(Cl)ccc32)c1` [Compound I-5], the half-maximal inhibitory concentration (IC50) was in the range of 1 to 20 µM.
With `Cc1cccc(C(=O)N[C@@H]2CCc3cc(Cl)ccc32)c1O` [Compound III-15], the IC50 is at most 1 µM.
Turning to `COc1cccc(O)c1C(=O)N[C@@H]1CCc2cc(Cl)ccc21` [Compound III-13], the IC50 lay in the range of 1 to 20 µM.
Take `Cn1nc(C(F)(F)F)cc1C(=O)N[C@@H]1CCc2cc(Cl)ccc21` [Compound I-26]: the 50% inhibitory concentration (IC50) was at most 1 µM.
Then `O=C(N[C@H]1CCc2cc(Cl)ccc21)c1ccc(NS(=O)(=O)C2CC2)cc1` [Compound II-18, N-[(1S)-5-chloroindan-1-yl]-4-(cyclopropylsulfonylamino)benzamide], with over 20 µM.
With `CN(C)S(=O)(=O)c1ccc(C(=O)N[C@@H]2CCc3cc(Cl)ccc32)s1` [Compound I-15], the half-maximal inhibitory concentration (IC50) is at most 1 µM.
`COCCS(=O)(=O)c1ccc(C(=O)N[C@@H]2CCc3cc(Cl)ccc32)cc1` [Compound II-40]: the half-maximal inhibitory concentration (IC50) fell in the range of 1 to 20 µM.
Consider `Nc1ccc(C(=O)N[C@H]2CCc3cc(Cl)ccc32)cc1` (single isomer, unassigned) [Compound II-16], for which the IC50 is at least 20 µM.
For `Cc1cccc(O)c1C(=O)N[C@@H]1CCc2cc(Cl)ccc21` [Compound III-17], the 50% inhibitory concentration (IC50) is at least 20 µM.
For the compound `CS(=O)(=O)N(CCO)c1ccc(C(=O)N[C@@H]2CCc3cc(Cl)ccc32)cc1` [Compound II-47], the half-maximal inhibitory concentration (IC50) is 1 to 20 µM.
For `CS(=O)(=O)Nc1ccc(C(=O)NC2CCCc3cc(Cl)ccc32)cc1` (single isomer, unassigned) [Compound II-53, N-(6-chlorotetralin-1-yl)-4-(methanesulfonamido)benzamide], the IC50 was at most 1 µM.
Turning to `CS(=O)(=O)c1ccc(C(=O)N[C@@H]2CCc3cc(Cl)ccc32)s1` [Compound I-18], the IC50 is at most 1 µM.
For `Nc1ccc(C(=O)N[C@@H]2CCc3cc(Cl)ccc32)cc1` [Compound II-9, 4-amino-N-[(1R)-5-chloroindan-1-yl]benzamide], the IC50 lay in the range of 1 to 20 µM.
Then `NS(=O)(=O)c1ccc(C(=O)N[C@@H]2CCc3cc(Cl)ccc32)o1` [Compound I-3], with 1 to 20 µM.
Regarding `COCCN(c1ccc(C(=O)N[C@@H]2CCc3cc(Cl)ccc32)cc1)S(C)(=O)=O` [Compound II-43], the IC50 was 1 to 20 µM.
Then `O=C(N[C@@H]1CCc2cc(Cl)ccc21)c1c(O)cccc1F` [Compound III-8], with 1 to 20 µM; and `CNS(=O)(=O)c1ccc(C(=O)N[C@@H]2CCCc3cc(Cl)ccc32)s1` (single isomer, unassigned) [Compound I-23], with 1 to 20 µM; and `O=C(N[C@@H]1CCc2cc(Cl)ccc21)c1ccc(F)cc1` (single isomer, unassigned) [Compound II-31], with at least 20 µM.

As usually defined, the IC50 is the point on the concentration scale where inhibition reaches its midpoint.

Source of the values: patent publication US20220280476A1, “KCNT1 INHIBITORS AND METHODS OF USE” (Praxis Precision Medicines, Inc., priority 2019, published 2022).
